Source: the NIST ThermoML archive (doi:10.1021/je050413l)
Where “and” joins values, the source holds several entries; their conditions need not be identical. Equal entries are not always repeated. Numbers after ± are expanded uncertainties.

How the values were obtained:
[1] = φn = volume fraction of the nth substance listed; conditions: 303.15 K, 101 kPa, Liquid
[2] = xn = mol fraction of the nth substance listed; conditions: 303.15 K, 101 kPa, Liquid, Direct dilatometry
[3] = 303.15 K, Liquid; for speed of sound / viscosity: 101 kPa; for mass density: 101.33 kPa, Pycnometric method

Cc1ccccc1[N+](=O)[O-] [2-nitrotoluene] + CC(=O)c1ccccc1
Conditions	excess molar volume [m3/mol]	speed of sound [m/s]	viscosity [mPa·s]
[1], φ2 = 0	–	–	1.911 ± 0.065
[1], φ2 = 0.0805	–	2017 ± 11	1.91 ± 0.065
[1], φ2 = 0.1011	–	1997 ± 11	1.903 ± 0.065
[1], φ2 = 0.2132	–	1889 ± 10	1.857 ± 0.063
[1], φ2 = 0.3245	–	1803 ± 10	1.817 ± 0.062
[1], φ2 = 0.4197	–	1737 ± 10	1.781 ± 0.061
[1], φ2 = 0.5086	–	1681 ± 10	1.747 ± 0.06
[1], φ2 = 0.6196	–	1622 ± 10	1.701 ± 0.058
[1], φ2 = 0.7297	–	1568 ± 9	1.652 ± 0.057
[1], φ2 = 0.7911	–	1541 ± 9	1.624 ± 0.056
[1], φ2 = 0.8704	–	1508 ± 9	1.582 ± 0.054
[2], x2 = 0.0812	1.1e-08 ± 6e-09	–	–
[2], x2 = 0.1019	1.5e-08 ± 6e-09	–	–
[2], x2 = 0.2147	2.4e-08 ± 6e-09	–	–
[2], x2 = 0.3265	3.3e-08 ± 6e-09	–	–
[2], x2 = 0.4219	3.9e-08 ± 6e-09	–	–
[2], x2 = 0.5109	4.2e-08 ± 6e-09	–	–
[2], x2 = 0.6217	3.7e-08 ± 6e-09	–	–
[2], x2 = 0.7315	2.6e-08 ± 6e-09	–	–
[2], x2 = 0.7926	2e-08 ± 6e-09	–	–
[2], x2 = 0.8714	1.1e-08 ± 6e-09	–	–

CC(=O)c1ccccc1 [acetophenone]
[3]
Conditions	mass density [kg/m3]	speed of sound	viscosity [mPa·s]
–	1019.43 ± 2.7	1460 ± 8 m/s and 1466 ± 8 m/s	1.511 ± 0.052

Cc1ccccc1Cl [2-chlorotoluene]
[3]
Conditions	mass density [kg/m3]	speed of sound [m/s]	viscosity [mPa·s]
–	1072.77 ± 2.8	1284 ± 7	0.887 ± 0.031

CC(=O)c1ccccc1 [acetophenone] + Cc1cccc(Cl)c1
[1], φ1 = 1
Conditions	speed of sound [m/s]	viscosity [mPa·s]
–	1460 ± 8	1.511 ± 0.052

CC(=O)c1ccccc1 [acetophenone] + Cc1ccc(Cl)cc1
[1], φ1 = 1
Conditions	speed of sound [m/s]	viscosity [mPa·s]
–	1460 ± 13	1.511 ± 0.052

Cc1cccc([N+](=O)[O-])c1 [3-nitrotoluene]
[3]
Conditions	mass density [kg/m3]	viscosity [mPa·s]
–	1147.62 ± 3	1.775 ± 0.061

CC(=O)c1ccccc1 [acetophenone] + Cc1ccccc1Cl
Conditions	excess molar volume, [2] [m3/mol]	speed of sound, [1] [m/s]	viscosity, [1] [mPa·s]
x1 = 0.0901	6e-09 ± 6e-09	–	–
x1 = 0.151	9e-09 ± 6e-09	–	–
x1 = 0.2271	1.3e-08 ± 6e-09	–	–
x1 = 0.3205	1.6e-08 ± 6e-09	–	–
x1 = 0.4021	1.8e-08 ± 6e-09	–	–
x1 = 0.5219	2e-08 ± 6e-09	–	–
x1 = 0.6224	2e-08 ± 6e-09	–	–
x1 = 0.702	1.8e-08 ± 6e-09	–	–
x1 = 0.8194	1.5e-08 ± 6e-09	–	–
x1 = 0.9005	9e-09 ± 6e-09	–	–
φ1 = 0.09	–	1310 ± 7	0.901 ± 0.032
φ1 = 0.1508	–	1326 ± 7	0.949 ± 0.033
φ1 = 0.2269	–	1345 ± 8	0.999 ± 0.035
φ1 = 0.3202	–	1368 ± 8	1.066 ± 0.037
φ1 = 0.4018	–	1387 ± 8	1.123 ± 0.039
φ1 = 0.5216	–	1409 ± 8	1.225 ± 0.043
φ1 = 0.6221	–	1423 ± 8	1.305 ± 0.045
φ1 = 0.7017	–	1432 ± 8	1.41 ± 0.049
φ1 = 0.8192	–	1448 ± 8	1.465 ± 0.05
φ1 = 0.9004	–	1451 ± 8	1.502 ± 0.052
φ1 = 1	–	1460 ± 8	1.511 ± 0.052

Cc1cccc(Cl)c1 [3-chlorotoluene] + CC(=O)c1ccccc1
Conditions	excess molar volume, [2] [m3/mol]	speed of sound, [1] [m/s]	viscosity, [1] [mPa·s]
x2 = 0.0524	1e-08 ± 6e-09	–	–
x2 = 0.103	1.5e-08 ± 6e-09	–	–
x2 = 0.2141	2.3e-08 ± 6e-09	–	–
x2 = 0.3119	2.9e-08 ± 6e-09	–	–
x2 = 0.4266	3.3e-08 ± 6e-09	–	–
x2 = 0.5009	3.4e-08 ± 6e-09	–	–
x2 = 0.6174	3.2e-08 ± 6e-09	–	–
x2 = 0.705	2.8e-08 ± 6e-09	–	–
x2 = 0.8519	1.5e-08 ± 6e-09	–	–
x2 = 0.952	6e-09 ± 6e-09	–	–
φ2 = 0	–	1280 ± 7	0.782 ± 0.028
φ2 = 0.052	–	1297 ± 7	0.891 ± 0.032
φ2 = 0.1022	–	1315 ± 7	0.901 ± 0.032
φ2 = 0.2127	–	1346 ± 8	1.002 ± 0.035
φ2 = 0.3101	–	1370 ± 8	1.073 ± 0.038
φ2 = 0.4246	–	1395 ± 8	1.16 ± 0.04
φ2 = 0.4988	–	1412 ± 8	1.222 ± 0.042
φ2 = 0.6154	–	1431 ± 8	1.31 ± 0.045
φ2 = 0.7033	–	1438 ± 8	1.37 ± 0.047
φ2 = 0.8508	–	1449 ± 8	1.458 ± 0.05
φ2 = 0.9516	–	1455 ± 8	1.503 ± 0.052

CC(=O)c1ccccc1 [acetophenone] + Cc1cccc([N+](=O)[O-])c1
[1], φ1 = 1
Conditions	speed of sound [m/s]	viscosity [mPa·s]
–	1466 ± 9	1.511 ± 0.052

Cc1ccc(Cl)cc1 [4-chlorotoluene] + CC(=O)c1ccccc1
Conditions	excess molar volume, [2] [m3/mol]	speed of sound, [1] [m/s]	viscosity, [1] [mPa·s]
x2 = 0.087	1.6e-08 ± 6e-09	–	–
x2 = 0.1206	2e-08 ± 6e-09	–	–
x2 = 0.2175	2.7e-08 ± 6e-09	–	–
x2 = 0.3009	3.4e-08 ± 6e-09	–	–
x2 = 0.4017	4.1e-08 ± 6e-09	–	–
x2 = 0.5224	4.4e-08 ± 6e-09	–	–
x2 = 0.6211	3.9e-08 ± 6e-09	–	–
x2 = 0.7025	3.2e-08 ± 6e-09	–	–
x2 = 0.8214	2.1e-08 ± 6e-09	–	–
x2 = 0.8774	1.6e-08 ± 6e-09	–	–
φ2 = 0	–	1271 ± 12	0.9 ± 0.032
φ2 = 0.0807	–	1304 ± 12	0.903 ± 0.032
φ2 = 0.1193	–	1314 ± 12	1.011 ± 0.035
φ2 = 0.2153	–	1343 ± 12	1.058 ± 0.037
φ2 = 0.2982	–	1371 ± 12	1.118 ± 0.039
φ2 = 0.3986	–	1406 ± 12	1.198 ± 0.042
φ2 = 0.5192	–	1419 ± 12	1.286 ± 0.045
φ2 = 0.6181	–	1430 ± 12	1.352 ± 0.047
φ2 = 0.6998	–	1440 ± 12	1.4 ± 0.048
φ2 = 0.8195	–	1448 ± 13	1.469 ± 0.051
φ2 = 0.876	–	1453 ± 13	1.496 ± 0.051

Cc1cccc([N+](=O)[O-])c1 [3-nitrotoluene] + CC(=O)c1ccccc1
Conditions	excess molar volume [m3/mol]	speed of sound [m/s]	viscosity [mPa·s]
[1], φ2 = 0	–	–	1.775 ± 0.061
[1], φ2 = 0.0972	–	1987 ± 11	1.748 ± 0.06
[1], φ2 = 0.116	–	1972 ± 11	1.745 ± 0.06
[1], φ2 = 0.2051	–	1892 ± 10	1.731 ± 0.059
[1], φ2 = 0.3085	–	1808 ± 10	1.713 ± 0.059
[1], φ2 = 0.4191	–	1737 ± 10	1.694 ± 0.058
[1], φ2 = 0.5383	–	1666 ± 10	1.666 ± 0.057
[1], φ2 = 0.6446	–	1608 ± 9	1.64 ± 0.056
[1], φ2 = 0.7076	–	1580 ± 9	1.623 ± 0.056
[1], φ2 = 0.7994	–	1539 ± 9	1.594 ± 0.055
[1], φ2 = 0.886	–	1503 ± 9	1.564 ± 0.054
[2], x2 = 0.0984	1.8e-08 ± 6e-09	–	–
[2], x2 = 0.1174	2.1e-08 ± 6e-09	–	–
[2], x2 = 0.2074	3e-08 ± 6e-09	–	–
[2], x2 = 0.3115	3.9e-08 ± 6e-09	–	–
[2], x2 = 0.4225	4.7e-08 ± 6e-09	–	–
[2], x2 = 0.5417	5e-08 ± 6e-09	–	–
[2], x2 = 0.6478	4.3e-08 ± 6e-09	–	–
[2], x2 = 0.7105	3.5e-08 ± 6e-09	–	–
[2], x2 = 0.8016	2.5e-08 ± 6e-09	–	–
[2], x2 = 0.8874	1.4e-08 ± 6e-09	–	–

Cc1ccccc1Cl [2-chlorotoluene] + CC(=O)c1ccccc1
[1], φ2 = 0
Conditions	speed of sound [m/s]	viscosity [mPa·s]
–	1284 ± 7	0.887 ± 0.031

Cc1ccc(Cl)cc1 [4-chlorotoluene]
[3]
Conditions	mass density [kg/m3]	speed of sound [m/s]	viscosity [mPa·s]
–	1060.54 ± 2.8	1271 ± 12	0.9 ± 0.032

Cc1ccccc1[N+](=O)[O-] [2-nitrotoluene]
[3]
Conditions	mass density [kg/m3]	viscosity [mPa·s]
–	1153.26 ± 3	1.911 ± 0.065

Cc1cccc(Cl)c1 [3-chlorotoluene]
[3]
Conditions	mass density [kg/m3]	speed of sound [m/s]	viscosity [mPa·s]
–	1065.22 ± 2.8	1280 ± 7	0.782 ± 0.028

CC(=O)c1ccccc1 [acetophenone] + Cc1ccccc1[N+](=O)[O-]
[1], φ1 = 1
Conditions	speed of sound [m/s]	viscosity [mPa·s]
–	1460 ± 9	1.511 ± 0.052
